What is called pEC50 is the EC50 on a negative log10 scale, so that one unit is a factor of ten.

pEC50: −log10 of the molar value.

For the first assay, the system named is Q7 cells (ST HDH Q7/7; immortalized mouse striatal cells). Kind of assay: Q7 Cystine Deprivation cell survival (rescue) assay. Type of assay: cell-based. Particulars: 18 h, read-out: Q7 Cystine Deprivation Survival EC50. The source says:
In neuronal cells excess extracellular glutamate inhibits the cystine/glutamate antiporter leading to intracellular cysteine depletion, GSH depletion, reactive oxygen species (ROS) production and cell death, a phenomenon termed oxidative glutamate toxicity, oxytosis, or ferroptosis. […] Q7 cells (ST HDH Q7/7; immortalized mouse striatal cells) challenged with cystine-free media or the selective, irreversible GPX4 inhibitor, methyl (1S,3R)-2-(2-chloroacetyl)-1-(4-(methoxycarbonyl)phenyl)-2,3,4,9-tetrahydro-1H-pyrido[3,4-b]indole-3-carboxylate (hereafter referred to as RSL3), recapitulate this phenotype, as do normal human fibroblasts (NHF) challenged with RSL3. An initial screen was performed to identify compounds effective in rescuing Q7 and/or NHF cells from death resulting from cystine deprivation or RSL3 challenge. This method is further described in Yonezawa et al., J. Neurochem 67, 566-573 (1996), Li et al., J Neurosci., 23, 5816-5826 (2003), Yang and Stockwell, Chem Biol., 15: 234-45 (2008), and Yang et al., Cell 156, 317-331 (2014). See also Hinman A, Holst C R, Latham J C, et al. Vitamin E hydroquinone is an endogenous regulator of ferroptosis via redox control of 15-lipoxygenase. PLoS One. 2018; 13(8):e0201369. Published 2018 Aug. 15. doi:10.1371/journal.pone.0201369; and Kahn-Kirby A H, Amagata A, Maeder C I, et al. Targeting ferroptosis: A novel therapeutic strategy for the treatment of mitochondrial disease-related epilepsy. PLoS One. 2019; 14(3):e0214250. Published 2019 Mar. 28. doi:10.1371/journal.pone.0214250.
DMEM (Catalog no. 11995-040), DMEM without Cystine (Catalog no. 21013-024), DMEM without Glucose (Catalog A1443001), PBS (Phosphate buffered saline), Penicillin-streptomycin mix, L-Glutamine, Glucose, Phenol Red, and Pyruvate were purchased from ThermoFisher Scientific (Gibco). Fetal Bovine Serum was obtained from Mediatech, Inc., or Sigma Aldrich. Mouse striatum derived ST HDH Q7/7 (Q7) and normal human skin fibroblast (NHF, product number GM21811) cells were obtained from the Coriell Institute. Methionine and Vitamin K2 were purchased from Sigma Aldrich. RSL3 was synthesized as previously described (see e.g. US Patent Publication US2010/0081654). Cell Titer Glo 2.0 was purchased from Promega. Q7 cell culture medium (Q7 growth medium) was made by combining 50 mL Fetal Bovine Serum, 100 U/mL penicillin, and 100 microgram/mL streptomycin; DMEM was added to make the volume up to 500 mL. Assay medium for the Cystine Deprivation assay was prepared by combining 50 mL Fetal Bovine Serum, 100 U/mL penicillin, 100 microgram/mL streptomycin, 4 mM L-Glutamine, 1 mM Pyruvate and 30 mg/L Methionine; DMEM without Cystine was added to make the volume up to 500 mL. NHF cell culture medium (NHF growth medium) was made by combining 50 mL Fetal Bovine Serum, 100 U/mL penicillin, 100 microgram/mL streptomycin, 2.8 mL 20% Glucose solution (final concentration 6 mM), L-glutamine (final concentration 2 mM), phenol red (final concentration 15 mg/L); DMEM without Glucose was added to make the volume up to 500 mL. Assay medium for the RSL3 challenge assay was identical to Growth medium. While not in use during the course of the experiments, these solutions were stored at 4° C. The cells were grown in 150-cm^2 tissue culture-treated flasks. Every third or fourth day, the cells were sub-cultured by trypsinization and re-seeded at a cell density of 600,000 (Q7) or 300,000 (NHF) cells per flask.
Q7 or NHF cells were cultured routinely as described herein. For 384-well cell survival assays, cells were seeded in clear bottom, black wall 384-well tissue culture-treated polystyrene plates by re-suspending a cell suspension at a density of 50,000 cells/mL in growth medium, then dispensing 60 microliters of cell suspension per well using either an electronic multichannel pipette or a Multidrop™ Combi Reagent Dispenser (ThermoFisher Scientific), corresponding to 3,000 cells/well. […]
Turning to `COc1cc2c(cc1OC)C(=O)C(Cc1ccc(C(F)(F)F)cn1)=C(C)C2=O` [Example 41, 6,7-dimethoxy-2-methyl-3-((5-(trifluoromethyl)pyridin-2-yl)methyl)naphthalene-1,4-dione], the pEC50 is over 7.30.

Staying with this assay, now noted: Q7 cells, cystine-free medium, 18 h, Cell Titer Glo, 50% relative viability vs Vitamin K2 (1 micromolar), read-out: Q7 Cystine Deprivation Survival EC50.
On to `CCCC1=C(Cc2ccc(C)cn2)C(=O)c2ccccc2C1=O` [Example 115, 2-((5-methylpyridin-2-yl)methyl)-3-propylnaphthalene-1,4-dione], for which the pEC50 was over 7.30.
On the same count and under the same terms, as for `CCCC1=C(Cc2ncc(F)cc2C)C(=O)c2ccccc2C1=O` [Example 111, 2-((5-fluoro-3-methylpyridin-2-yl)methyl)-3-propylnaphthalene-1,4-dione], the figure is 6.60 to 7.30.
The same measure, in the same setting: the figure for `CCOc1cnnc(CC2=C(C)C(=O)c3ccccc3C2=O)c1` [Example 16, 2-((5-ethoxypyridazin-3-yl)methyl)-3-methylnaphthalene-1,4-dione] is over 7.30; for `O=C1C=C(Cc2ccc(C(F)(F)F)cn2)C(=O)c2ccccc21` [Example 25, 2-((5-(trifluoromethyl)pyridin-2-yl)methyl)naphthalene-1,4-dione] it is 6.00 to 6.60.
Same read-out and setting: as for `O=C1C(O)=C(Cc2ccc(C(F)(F)F)cn2)C(=O)c2ccccc21` [Example 125, 2-hydroxy-3-((5-(trifluoromethyl)pyridin-2-yl)methyl)naphthalene-1,4-dione], the figure is under 6.00.
Take `COC(C1=C(C)C(=O)c2ccccc2C1=O)c1ccc(C(F)(F)F)cn1` (stereo not shown) [Example 124, 2-(methoxy(5-(trifluoromethyl)pyridin-2-yl)methyl)-3-methylnaphthalene-1,4-dione]: the pEC50 was over 7.30.
Still for that read-out and setting: as for `COc1ccc2c(c1)C(=O)C(C)=C(Cc1ccc(C(F)(F)F)cn1)C2=O` [Example 37, 6-methoxy-3-methyl-2-((5-(trifluoromethyl)pyridin-2-yl)methyl)naphthalene-1,4-dione], the figure is over 7.30.
As to `CCCC1=C(Cc2ccc(Cl)cn2)C(=O)c2ccccc2C1=O` [Example 106, 2-((5-chloropyridin-2-yl)methyl)-3-propylnaphthalene-1,4-dione], the pEC50 is over 7.30.
The same measure, in the same setting: the figure for `CCCC1=C(Cc2ncc(F)cc2F)C(=O)c2ccccc2C1=O` [Example 117, 2-((3,5-difluoropyridin-2-yl)methyl)-3-propylnaphthalene-1,4-dione] is over 7.30.
The same measure, in the same setting: the figure for `CC1=C(Cc2cccnn2)C(=O)c2ccccc2C1=O` [Example 12, 2-methyl-3-(pyridazin-3-ylmethyl)naphthalene-1,4-dione] is over 7.30; for `CC1=C(Cc2cc(C)c(C)nn2)C(=O)c2ccccc2C1=O` [Example 13, 2-((5,6-dimethylpyridazin-3-yl)methyl)-3-methylnaphthalene-1,4-dione] it is over 7.30.
Take `CC1=C(Cc2cc(C)c(F)cn2)C(=O)c2ccccc2C1=O` [Example 3, 2-((5-fluoro-4-methylpyridin-2-yl)methyl)-3-methylnaphthalene-1,4-dione]: the pEC50 is over 7.30.
The same measure, in the same setting: as for `CCCC1=C(Cc2cc(C(F)(F)F)c(F)cn2)C(=O)c2ccccc2C1=O` [Example 119, 2-((5-fluoro-4-(trifluoromethyl)pyridin-2-yl)methyl)-3-propylnaphthalene-1,4-dione], the figure is over 7.30; as for `COc1nnc(CC2=C(C)C(=O)c3ccccc3C2=O)cc1C` [Example 18, 2-((6-methoxy-5-methylpyridazin-3-yl)methyl)-3-methylnaphthalene-1,4-dione], under 6.00.
Same read-out and setting: as for `CC1=C(Cc2ncc(C(F)(F)F)cn2)C(=O)c2ccccc2C1=O` [Example 19, 2-methyl-3-((5-(trifluoromethyl)pyrimidin-2-yl)methyl)naphthalene-1,4-dione], the figure is over 7.30; as for `CCCC1=C(Cc2ncc(C(F)(F)F)cc2F)C(=O)c2ccccc2C1=O` [Example 108, 2-((3-fluoro-5-(trifluoromethyl)pyridin-2-yl)methyl)-3-propylnaphthalene-1,4-dione], 6.60 to 7.30; as for `CC1=C(Cc2cc(C(F)(F)F)cnn2)C(=O)c2ccccc2C1=O` [Example 11, 2-methyl-3-((5-(trifluoromethyl)pyridazin-3-yl)methyl)naphthalene-1,4-dione], over 7.30.
Same read-out and setting: as for `CCCC1=C(Cc2cc(C#N)c(F)cn2)C(=O)c2ccccc2C1=O` [Example 110, 2-((1,4-dioxo-3-propyl-1,4-dihydronaphthalen-2-yl)methyl)-5-fluoroisonicotinonitrile], the figure is over 7.30; as for `CCCC1=C(Cc2ccc(F)c(C#N)n2)C(=O)c2ccccc2C1=O` [Example 112, 6-((1,4-dioxo-3-propyl-1,4-dihydronaphthalen-2-yl)methyl)-3-fluoropicolinonitrile], over 7.30; as for `O=C1C(CCC2COC2)=C(Cc2ccc(F)cn2)C(=O)c2ccccc21` [Example 121, 2-((5-fluoropyridin-2-yl)methyl)-3-(2-(oxetan-3-yl)ethyl)naphthalene-1,4-dione], over 7.30.
As to `COc1ccc2c(c1)C(=O)C(Cc1ccc(C(F)(F)F)cn1)=C(C)C2=O` [Example 36, 6-methoxy-2-methyl-3-((5-(trifluoromethyl)pyridin-2-yl)methyl)naphthalene-1,4-dione], the pEC50 was over 7.30.
On the same count and under the same terms, as for `CC1=C(Cc2ccc(C(F)(F)F)cn2)C(=O)c2cccc(F)c2C1=O` [Example 46, 5-fluoro-3-methyl-2-((5-(trifluoromethyl)pyridin-2-yl)methyl)naphthalene-1,4-dione], the figure is over 7.30; as for `CC1=C(Cc2ccc(C(F)(F)F)nn2)C(=O)c2ccccc2C1=O` [Example 10, 2-methyl-3-((6-(trifluoromethyl)pyridazin-3-yl)methyl)naphthalene-1,4-dione], over 7.30.
The same measure, in the same setting: as for `CC1=C(Cc2cccc(C(F)(F)F)n2)C(=O)c2ccccc2C1=O` [Example 8, 2-methyl-3-((6-(trifluoromethyl)pyridin-2-yl)methyl)naphthalene-1,4-dione], the figure is over 7.30; as for `CC1=C(Cc2cc(C)cnn2)C(=O)c2ccccc2C1=O` [Example 15, 2-methyl-3-((5-methylpyridazin-3-yl)methyl)naphthalene-1,4-dione], over 7.30; as for `Cc1ccc(CC2=C(C3CC3)C(=O)c3ccccc3C2=O)nc1` [Example 38, 2-cyclopropyl-3-((5-methylpyridin-2-yl)methyl)naphthalene-1,4-dione], over 7.30.
Still for that read-out and setting: as for `COc1cccc2c1C(=O)C(C)=C(Cc1ccc(C(F)(F)F)cn1)C2=O` [Example 40, 5-methoxy-3-methyl-2-((5-(trifluoromethyl)pyridin-2-yl)methyl)naphthalene-1,4-dione], the figure is over 7.30; as for `CC1=C(Cc2ccc(C)cn2)C(=O)c2ccccc2C1=O` [Example 7, 2-methyl-3-((5-methylpyridin-2-yl)methyl)naphthalene-1,4-dione], over 7.30.
Turning to `COc1nnc(CC2=C(C)C(=O)c3ccccc3C2=O)cc1C(F)(F)F` [Example 17, 2-((6-methoxy-5-(trifluoromethyl)pyridazin-3-yl)methyl)-3-methylnaphthalene-1,4-dione], the pEC50 is over 7.30.
Same read-out and setting: as for `CC1=C(Cc2cc(C(F)(F)F)c(F)cn2)C(=O)c2ccccc2C1=O` [Example 2, 2-((5-fluoro-4-(trifluoromethyl)pyridin-2-yl)methyl)-3-methylnaphthalene-1,4-dione], the figure is over 7.30.

The values are drawn from patent US20230002324A1, “NAPHTHOQUINONE DERIVATIVES FOR TREATMENT OF OXIDATIVE STRESS DISORDERS” (PTC THERAPEUTICS, INC., priority 2019, published 2023).
